From patent US8158647B2, “Substituted pyrrolopyridines and pyrazolopyridines as kinase modulators” (SGX Pharmaceuticals, Inc., priority 2007, dated 2012)

Key:
[1] = target: T1, purified and unphosphorylated T315I Abl kinase domain (ABL_T315I_0P) (Mus musculus, UniProt P00520, T315I); experiment: c-Abl T315I (unphosphorylated kinase domain) pyruvate kinase/lactate dehydrogenase coupled enzyme assay; assay type: biochemical; details: 10 μM ATP
T1 construct: The c-Abl T3151 KD (kinase domain) was purified as follows; Met-Ser-Leu (vector-derived residues) (N); made in house; host or cells: E. coli BL21(DE3) strains (Codon+RIL, or pSA0145 for the lambda phosphatase co-expression plasmid)
T1 sequence (P00520 242-493 T315I limits assumed): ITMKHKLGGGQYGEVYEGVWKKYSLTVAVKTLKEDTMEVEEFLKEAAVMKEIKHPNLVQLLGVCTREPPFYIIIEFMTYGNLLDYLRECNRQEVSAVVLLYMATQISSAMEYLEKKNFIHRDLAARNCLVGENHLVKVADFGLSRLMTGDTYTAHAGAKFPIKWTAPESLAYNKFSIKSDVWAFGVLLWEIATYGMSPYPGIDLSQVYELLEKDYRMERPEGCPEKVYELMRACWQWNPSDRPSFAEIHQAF
Source text: Although the first of these examples uses the kinase domain of a mutant form of Abl T315I (“Abl T315I KD”), the kinase assays may use various forms of mutant and wild type enzymes, including, for example, the entire protein, the kinase domain, or a portion thereof (e.g. Abl Y393F). The kinases used in the assays may also be of varying phosphorylation states. In the c-Abl example, a mutant kinase at a zero phosphorylation state was used.
c-Abl Pyruvate Kinase/Lactate Dehydrogenase Coupled Enzyme Assay
In the c-Abl Pyruvate Kinase (PK)/Lactate Dehydrogenase (LDH) Coupled Assay the protein kinase dependant phosphorylation of a substrate peptide was coupled to the oxidation of NADH. The oxidation of NADH to NAD+ was detected by monitoring a decrease in absorbance at 340 nm.
Materials: Abl substrate peptide=EAIYAAPFAKKK-OH (SEQ ID NO: 1) (Biopeptide, San Diego, Calif.); […]NADH (Sigma Cat#N-8129, FW=709.4); 2M MgCl2; 1M HEPES buffer, pH 7.5; Phosphoenolpyruvate (PEP) (Sigma Cat#P-7002, FW=234); Lactate dehydrogenase (LDH) (Worthington Biochemical Cat#2756); Pyruvate Kinase (PK) (Sigma Cat#P-9136); ATP (Sigma Cat#A-3377, FW=551); Greiner 384-well UV star plate; and purified and unphosphorylated T3151 Abl kinase domain.
Stock Solutions: 10 mM NADH (7.09 mg/ml in miliQH2O) made fresh daily; 10 mM Abl substrate peptide (13.4 mg/ml in miliQH2O) stored at −20° C.; 100 mM HEPES buffer, pH 7.5 (5 ml 1M stock+45 ml miliQH2O); 100mM MgCl2 (5 ml 2M MgCl2+95 ml dH2O); 100 mM PEP (23.4 mg/ml in dH2O) stored at −20° C.; 10mM ATP (5.51 mg/ml in dH2O) stored at −20° C. (diluted 50 μl into total of 10 ml miliQH2O daily=50 μM ATP working stock); 1000 U/ml PK (U/mg varies with lot) flash-frozen under liquid N2 and stored at −80° C.; and 1000 U/ml LDH (U/mg varies with lot) flash-frozen under liquid N2 and stored at −80° C.
Standard Assay Setup for 384-well format (50 μl reaction): 300 μM NADH; 10 mM MgCl2; 2 mM PEP; 45 U/ml PK; 60 U/ml LDH; 200 μM Abl substrate peptide; 2.5 μl test compound (in DMSO); 2 μg/ml Abl kinase domain; 10 μM ATP; 100 mM HEPES buffer. Positive controls contained DMSO with no test compound. Negative controls contained 5 μl of 0.5M EDTA (50 mM in the assay). The dephosphorylated form of the c-Abl T315I mutant was used in the biochemical screening assays. The kinase reaction was initiated at time t=0 by the addition of ATP.
Activity was measured by following the time-dependent loss of NADH by absorbance spectroscopy at 340 nm. The linear portion of the resulting progress curve was then analyzed by linear regression to get the activity in absorbance units/time, reported as the slope of that best fit line (moles/unit time can be calculated from using molar extinction coefficient for NADH at 340 nm, 6250M^−1 cm^−1).
Screening data was evaluated using the equation: Z′=1-[3*(σ++σ−)/|μ+−μ−|] (Zhang, et al., 1999 J Biomol Screening 4(2) 67-73), where μ denotes the mean and σ the standard deviation. The subscript designates positive or negative controls. The Z′ score for a robust screening assay should be ≧0.50. The typical threshold=μ+−3*σ+−. Any value that falls below the threshold was designated a “hit”.
Dose response was analyzed using the equation: y=min+{(max−min)/(1+10^[compound]−logIC50)}, where y is the observed initial slope, max=the slope in the absence of inhibitor, min=the slope at infinite inhibitor, and the IC50 is the [compound] that corresponds to ½ the total observed amplitude (Amplitude=max−min).
To measure modulation, activation, or inhibition of Abl KD, a test compound was added to the assay at a range of concentrations. Inhibitors may inhibit Abl KD activity at an IC50 in the micromolar range, the nanomolar range, or, for example, in the subnanomolar range.
An open-reading frame for c-Abl was amplified from a Mus musculus (mouse) cDNA library prepared from freshly harvested mouse liver using a commercially available kit (Invitrogen) by PCR using the following primers: […]
The c-Abl T3151 KD (kinase domain) was purified as follows. […]

[2] = target: T2, ABL T315I BAF3 cells (Homo sapiens, UniProt P00519, T315I, cells depend on it); experiment: 96-well XTT cell survival assay, BaF3 ABL T315I; assay type: cell-based; details: 72 hours, read-out: CELL BIO ABL T315I BAF3 XTT (IC50)
T2 construct: ABL T315I BAF3; fused on or other part: P11274 (Breakpoint cluster region protein)
Experimental: (§1) MV4-11 and THP cells were maintained in Iscove's Modified Dulbecco's Medium supplemented with 10% fetal bovine serum (FBS) and penicillin/streptomycin, Ba/F3 cells were maintained in RPMI 1640 supplemented with 10% FBS, penicillin/streptomycin and 5 ng/ml recombinant mouse IL-3.
(§2) Compounds were tested in the following assays in duplicate.
(§3) 96-well XTT assay: Cells (e.g. BaF3 315I, M3511, or E255K cells) were grown in growth media containing various concentrations of compounds (duplicates) on a 96-well plate for 72 hours at 37° C. The starting cell number was 5000-8000 cells per well and volume was 120 μl. At the end of the 72-hour incubation, 40 μl of XTT labeling mixture (50:1 solution of sodium 3′-[1-(phenylamino-carbonyl)-3,4-tetrazolium]-bis(4-methoxy-6-nitro) benzene sulfonic acid hydrate and Electron-coupling reagent: PMS (N-methyl dibenzopyrazine methyl sulfate) were added to each well of the plate. After an additional 2-6 hours of incubation at 37° C., the absorbance reading at 405 nm with background correction at 650 nm was measured with a spectrophotometer.

[3] = target: T3, ABL P210WT BAF3 cells (Homo sapiens, UniProt P00519); experiment: 96-well XTT cell survival assay, BaF3 ABL P210WT; assay type: cell-based; details: ABL P210 WT, 72 hours, read-out: CELL BIO ABL P210WT BAF3 XTT (IC50)
T3 construct: ABL P210WT BAF3; fused on or other part: P11274 (Breakpoint cluster region protein)
Experimental: as §1, §2, §3

SMILES	ABL_T315I_0P (IC50) [1]	GI50 [2] [nM]	GI50 [3] [nM]
CN(C)C(=O)c1cncc(-c2cnc3[nH]cc(-c4ccc(F)cc4)c3c2Cl)c1	C (0.1-0.01 μM)	> 1000	100 to 1000
OC(c1cncc(-c2cnc3[nH]cc(-c4ccccc4F)c3c2Cl)c1)c1ncccc1F (stereo not shown)	D (<0.01 μM)	100 to 1000	100 to 1000
CN(C)C(=O)C(O)c1cncc(-c2cnc3[nH]nc(-c4ccccc4)c3c2Cl)c1 (stereo not shown) [2-[5-(4-Chloro-3-phenyl-1H-pyrazolo[3,4-b]pyridin-5-yl)-pyridin-3-yl]-2-hydroxy-N,N-dimethyl-acetamide]	B (1.0-0.1 μM)		
COc1ccccc1-c1c[nH]c2ncc(Br)c(NCCO)c12 [2-[5-Bromo-3-(2-methoxy-phenyl)-1H-pyrrolo[2,3-b]pyridin-4-ylamino]-ethanol]	B (1.0-0.1 μM)		
CN(C)C(=O)C(O)c1cncc(-c2cnc3[nH]nc(-c4ccccc4F)c3c2Cl)c1 (stereo not shown) [2-{5-[4-Chloro-3-(2-fluoro-phenyl)-1H-pyrazolo[3,4-b]pyridin-5-yl]-pyridin-3-yl}-2-hydroxy-N,N-dimethyl-acetamide]	B (1.0-0.1 μM)		
CC(C)c1ncncc1-c1c[nH]c2ncc(-c3cncc(C(O)C(=O)N(C)C)c3)c(Cl)c12 (stereo not shown) [2-{5-[4-Chloro-3-(4-isopropyl-pyrimidin-5-yl)-1H-pyrrolo[2,3-b]pyridin-5-yl]-pyridin-3-yl}-2-hydroxy-N,N-dimethyl-acetamide]	B (1.0-0.1 μM)		
COc1ccccc1-c1c[nH]c2ncc(-c3cncc(C(O)C(=O)N(C)C)c3)c(N(C)C)c12 (stereo not shown) [2-{5-[4-Dimethylamino-3-(2-methoxy-phenyl)-1H-pyrrolo[2,3-b]pyridin-5-yl]-pyridin-3-yl}-2-hydroxy-N,N-dimethyl-acetamide]	B (1.0-0.1 μM)		
COc1ccccc1-c1c[nH]c2ncc(-c3cnn(C)c3)c(N)c12 [3-(2-Methoxy-phenyl)-5-(1-methyl-1H-pyrazol-4-yl)-1H-pyrrolo[2,3-b]pyridin-4-ylamine]	B (1.0-0.1 μM)		
CSc1c(Br)cnc2[nH]cc(I)c12 [5-Bromo-3-iodo-4-methylsulfanyl-1H-pyrrolo[2,3-b]pyridine]	A (>1.0 μM)		
COc1ccccc1-c1c[nH]c2ncc(Br)c(Cl)c12 [5-Bromo-4-chloro-3-(2-methoxy-phenyl)-1H-pyrrolo[2,3-b]pyridine]	C (0.1-0.01 μM)		

Further lines, with some results ahead:

ABL_T315I_0P (IC50) [1]	SMILES	GI50 [2] [nM]	GI50 [3] [nM]
D (<0.01 μM)	CN(C)C(=O)C(O)c1cc(-c2cnc3[nH]cc(-c4ccccc4F)c3c2Cl)cnc1N (stereo not shown)	10 to 100	100 to 1000
D (<0.01 μM)	NC(=O)C(O)c1cncc(-c2cnc3[nH]cc(-c4ccccc4F)c3c2Cl)c1 (stereo not shown)	> 1000	> 1000
C (0.1-0.01 μM)	CNc1ncccc1-c1c[nH]c2ncc(-c3cncc(C(O)C(=O)N(C)C)c3)c(Cl)c12 (stereo not shown)	> 1000	> 1000
D (<0.01 μM)	CN(C)C(=O)c1cncc(-c2cnc3[nH]cc(-c4ccccc4F)c3c2Cl)c1	100 to 1000	100 to 1000
D (<0.01 μM)	CN(C)C(=O)c1cncc(-c2cnc3[nH]cc(-c4cccc(F)c4F)c3c2Cl)n1	100 to 1000	100 to 1000
C (0.1-0.01 μM)	CNC(=O)c1cncc(-c2cnc3[nH]cc(-c4ccccc4F)c3c2Cl)n1	> 1000	> 1000
C (0.1-0.01 μM)	COc1cc(C#N)ccc1-c1c[nH]c2ncc(-c3cnc(N)c(C(=O)N(C)C)c3)c(Cl)c12 [2-Amino-5-[4-chloro-3-(4-cyano-2-methoxy-phenyl)-1H-pyrrolo[2,3-b]pyridin-5-yl]-N,N-dimethyl-nicotinamide]		
B (1.0-0.1 μM)	CN(C)C(=O)C(=O)c1cncc(-c2cnc3[nH]cc(-c4ccc(F)cc4)c3c2Cl)c1 [2-{5-[4-Chloro-3-(4-fluoro-phenyl)-1H-pyrrolo[2,3-b]pyridin-5-yl]-pyridin-3-yl}-N,N-dimethyl-2-oxo-acetamide]		
